Source: PMC9917201, “Enhanced Antibacterial Activity of Substituted Derivatives of NCR169C Peptide” (International Journal of Molecular Sciences, 2023)
In brackets after ≈: the same amount, converted by molar mass. Like-named read-outs stand apart in the source and are kept apart here. Non-standard residues stand in square brackets, D forms with d. Residues, ends and D or L forms follow the SMILES beside them. ξ: configuration not given here. ξTrp(5-Me) = Cc1ccc2[nH]cc(CC(N)C(=O)O)c2c1; ξTrp(6-F) = NC(Cc1c[nH]c2cc(F)ccc12)C(=O)O; ξTrp(7-aza) = NC(Cc1c[nH]c2ncccc12)C(=O)O

What was measured:
S. aureus (ATCC 25923) = format: cell-based, Staphylococcus aureus; settings: ATCC 25923, 3 h, pH 7.4
From the text: (§1) The bacterial strains for the antimicrobial assay were obtained from the ATCC (American Type Culture Collection, Manassas, VA, USA) and NCTC (National Collection of Type Cultures, Salisbury, UK). Gram-negative strains were Pseudomonas aeruginosa (ATCC 27853), Escherichia coli (ATCC 8739, ATCC 35218, and ATCC 25922), Salmonella enterica (ATCC 13076), Klebsiella pneumoniae (NCTC 13440), Acinetobacter baumannii (ATCC 17978) and the Gram-positive strains were Enterococcus faecalis (ATCC 29212), Listeria monocytogenes (ATCC 19111), and Staphylococcus aureus (HNCMO112011 and ATCC 25923).
(§2) Determination of antibacterial activity for the peptides was carried out by utilizing a minimum bactericidal concentration (MBC) bioassay. Synthesized peptides were dissolved in sterile water and used from 25 to 0.125 μM in 2-fold dilution series and incubated with ~10^7 log phase bacteria in Potassium-Phosphate Buffer (PPB, pH: 7.4) for three hours as described earlier. After that, 5 μl of each sample was placed on LB agar and the growth of bacteria was monitored after overnight incubation at 37 °C. The lowest concentration of the antimicrobial agents that completely eliminated viable bacteria was considered the minimal bactericidal concentration (MBC).

E. coli (ATCC 35218) = format: cell-based, Escherichia coli; settings: ATCC 35218, 3 h, pH 7.4
From the text: as §1, §2

E. coli (ATCC 25922) = format: cell-based, Escherichia coli; settings: ATCC 25922, 3 h, pH 7.4
From the text: as §1, §2

[1] = system: tested bacteria (ESKAPE pathogens, Listeria monocytogenes, Salmonella enterica); format: cell-based
From the text: as §1, §2

[2] = system: Klebsiella pneumoniae (NCTC 13440); format: cell-based
From the text: as §1, §2

[3] = system: Enterococcus faecalis (ATCC 29212); format: cell-based
From the text: as §1, §2

[4] = system: Escherichia coli (ATCC 8739); format: cell-based
From the text: as §1, §2

[5] = system: Acinetobacter baumannii (ATCC 17978); format: cell-based
From the text: as §1, §2

[6] = system: Staphylococcus aureus (HNCMO112011); format: cell-based
From the text: as §1, §2

[7] = system: Salmonella enterica (ATCC 13076); format: cell-based
From the text: as §1, §2

[8] = system: Listeria monocytogenes (ATCC 19111); format: cell-based
From the text: as §1, §2

[9] = system: Pseudomonas aeruginosa (ATCC 27853); format: cell-based
From the text: as §1, §2

[10] = Enterococcus faecalis ATCC 29212, ~10^7 log phase bacteria, 3 h in potassium-phosphate buffer (PPB) pH 7.4, peptide 25 to 0.125 μM 2-fold series, 5 μl on LB agar, overnight 37 °C
[11] = Listeria monocytogenes ATCC 19111, ~10^7 log phase bacteria, 3 h in PPB pH 7.4, peptide 25 to 0.125 μM 2-fold series, plated on LB agar, overnight 37 °C

Compound	MBC S.a. ATTC 25923 (S. aureus (ATCC 25923))	MBC E.c. ATTC 35218 (E. coli (ATCC 35218))	MBC E.c. ATTC 25922 (E. coli (ATCC 25922))	MBC against most or all of the tested bacteria ([1]; 3 h, pH 7.4)	Minimal bactericidal concentration (MBC) K. p. ([2]; NCTC 13440, 3 h, pH 7.4)	Minimal bactericidal concentration (MBC) E. f. ([3]; ATCC 29212, 3 h, pH 7.4)	Minimal bactericidal concentration (MBC) E. c. ([4]; ATCC 8739, 3 h, pH 7.4)	Minimal bactericidal concentration (MBC) A. b. ([5]; ATCC 17978, 3 h, pH 7.4)	Minimal bactericidal concentration (MBC) S. a. ([6]; HNCMO112011, 3 h, pH 7.4)	Minimal bactericidal concentration (MBC) S. e. ([7]; ATCC 13076, 3 h, pH 7.4)	Minimal bactericidal concentration (MBC) L. m. ([8]; ATCC 19111, 3 h, pH 7.4)	Minimal bactericidal concentration (MBC) P. a. ([9]; ATCC 27853, 3 h, pH 7.4)	Minimal bactericidal concentration (MBC) E. f. [3, 10]	Minimal bactericidal concentration (MBC) L. m. [8, 11]	other results
CC[C@H](C)[C@H](NC(=O)[C@H](CCCCN)NC(=O)[C@H](Cc1ccccc1)NC(=O)[C@H](CC(C)C)NC(=O)[C@@H]1CCCN1C(=O)[C@H](CCCCN)NC(=O)[C@H](CCCCN)NC(=O)[C@H](CO)NC(=O)[C@@H](N)CCCCN)C(=O)NC(Cc1c[nH]c2cc(F)ccc12)C(=O)N[C@@H](CCCCN)C(=O)N[C@@H](CO)C(=O)N[C@H](C(=O)N[C@@H](CCC(=O)O)C(=O)N[C@@H](CC(N)=O)C(=O)N[C@H](C(=O)N[C@@H](CO)C(=O)N[C@H](C(=O)N[C@@H](CC(C)C)C(=O)N[C@@H](Cc1c[nH]c2ccccc12)C(=O)N[C@@H](Cc1ccc(O)cc1)C(=O)N[C@@H](CCCCN)C(N)=O)C(C)C)C(C)C)C(C)C (some centres unmarked) [NCR169C17–38C12,17/S-10W^6-F II] (H-KSKKPLFKI[ξTrp(6-F)]KSVENVSVLWYK-NH2; N-terminus assumed)	1.6 µM (≈ 4.36 µg/mL)	0.8 µM (≈ 2.18 µg/mL)	0.8 µM (≈ 2.18 µg/mL)	0.8 to 1.6 µM	1.6 µM (≈ 4.36 µg/mL)	0.8 µM (≈ 2.18 µg/mL)	0.8 µM (≈ 2.18 µg/mL)	0.8 µM (≈ 2.18 µg/mL)	0.8 µM (≈ 2.18 µg/mL)	6.3 µM (≈ 17.2 µg/mL)	1.6 µM (≈ 4.36 µg/mL)	1.6 µM (≈ 4.36 µg/mL)	–	–	–
CC[C@H](C)[C@H](NC(=O)[C@H](CCCCN)NC(=O)[C@H](Cc1ccccc1)NC(=O)[C@H](CC(C)C)NC(=O)[C@@H]1CCCN1C(=O)[C@H](CCCCN)NC(=O)[C@H](CCCCN)NC(=O)[C@H](CO)NC(=O)[C@@H](N)CCCCN)C(=O)N[C@@H](Cc1c[nH]c2ccccc12)C(=O)N[C@@H](CCCCN)C(=O)N[C@@H](CO)C(=O)N[C@H](C(=O)N[C@@H](CCC(=O)O)C(=O)N[C@@H](CC(N)=O)C(=O)N[C@H](C(=O)N[C@@H](CO)C(=O)N[C@H](C(=O)N[C@@H](CC(C)C)C(=O)NC(Cc1c[nH]c2ccc(C)cc12)C(=O)N[C@@H](Cc1ccc(O)cc1)C(=O)N[C@@H](CCCCN)C(N)=O)C(C)C)C(C)C)C(C)C (some centres unmarked) [NCR169C17–38C12,17/S-20W^5-Me I] (H-KSKKPLFKIWKSVENVSVL[ξTrp(5-Me)]YK-NH2; N-terminus assumed)	–	–	–	6.3 to 12.5 µM	12.5 µM (≈ 34 µg/mL)	12.5 µM (≈ 34 µg/mL)	6.3 µM (≈ 17.1 µg/mL)	6.3 µM (≈ 17.1 µg/mL)	6.3 µM (≈ 17.1 µg/mL)	6.3 µM (≈ 17.1 µg/mL)	6.3 µM (≈ 17.1 µg/mL)	6.3 µM (≈ 17.1 µg/mL)	–	–	–
CC[C@H](C)[C@H](NC(=O)[C@H](CCCCN)NC(=O)[C@H](Cc1ccccc1)NC(=O)[C@H](CC(C)C)NC(=O)[C@@H]1CCCN1C(=O)[C@H](CCCCN)NC(=O)[C@H](CCCCN)NC(=O)[C@H](CO)NC(=O)[C@@H](N)CCCCN)C(=O)N[C@@H](Cc1c[nH]c2ccccc12)C(=O)N[C@@H](CCCCN)C(=O)N[C@@H](CO)C(=O)N[C@H](C(=O)N[C@@H](CCC(=O)O)C(=O)N[C@@H](CC(N)=O)C(=O)N[C@H](C(=O)N[C@@H](CO)C(=O)N[C@H](C(=O)N[C@@H](CC(C)C)C(=O)NC(Cc1c[nH]c2ncccc12)C(=O)N[C@@H](Cc1ccc(O)cc1)C(=O)N[C@@H](CCCCN)C(N)=O)C(C)C)C(C)C)C(C)C (some centres unmarked) [NCR169C17–38C12,17/S-20W^7-Aza II] (H-KSKKPLFKIWKSVENVSVL[ξTrp(7-aza)]YK-NH2; N-terminus assumed)	–	–	–	12.5 µM	12.5 µM (≈ 33.9 µg/mL)	12.5 µM (≈ 33.9 µg/mL)	12.5 µM (≈ 33.9 µg/mL)	12.5 µM (≈ 33.9 µg/mL)	12.5 µM (≈ 33.9 µg/mL)	12.5 µM (≈ 33.9 µg/mL)	12.5 µM (≈ 33.9 µg/mL)	12.5 µM (≈ 33.9 µg/mL)	–	–	–
CC[C@H](C)[C@H](NC(=O)[C@H](CCCCN)NC(=O)[C@H](Cc1ccccc1)NC(=O)[C@H](CC(C)C)NC(=O)[C@@H]1CCCN1C(=O)[C@H](CCCCN)NC(=O)[C@H](CCCCN)NC(=O)[C@H](CO)NC(=O)[C@@H](N)CCCCN)C(=O)N[C@@H](Cc1c[nH]c2ccccc12)C(=O)N[C@@H](CCCCN)C(=O)N[C@@H](CO)C(=O)N[C@H](C(=O)N[C@@H](CCC(=O)O)C(=O)N[C@@H](CC(N)=O)C(=O)N[C@H](C(=O)N[C@@H](CO)C(=O)N[C@H](C(=O)N[C@@H](CC(C)C)C(=O)NC(Cc1c[nH]c2ncccc12)C(=O)N[C@@H](Cc1ccc(O)cc1)C(=O)N[C@@H](CCCCN)C(N)=O)C(C)C)C(C)C)C(C)C (some centres unmarked) [NCR169C17–38C12,17/S-20W^7-Aza I] (H-KSKKPLFKIWKSVENVSVL[ξTrp(7-aza)]YK-NH2; N-terminus assumed)	–	–	–	6.3 µM	6.3 µM (≈ 17.1 µg/mL)	–	3.1 µM (≈ 8.4 µg/mL)	6.3 µM (≈ 17.1 µg/mL)	6.3 µM (≈ 17.1 µg/mL)	6.3 µM (≈ 17.1 µg/mL)	–	6.3 µM (≈ 17.1 µg/mL)	25 µM (≈ 67.7 µg/mL)	25 µM (≈ 67.7 µg/mL)	–
CC[C@H](C)[C@H](NC(=O)[C@H](CCCCN)NC(=O)[C@H](Cc1ccccc1)NC(=O)[C@H](CC(C)C)NC(=O)[C@@H]1CCCN1C(=O)[C@H](CCCCN)NC(=O)[C@H](CCCCN)NC(=O)[C@H](CO)NC(=O)[C@@H](N)CCCCN)C(=O)N[C@@H](Cc1c[nH]c2ccccc12)C(=O)N[C@@H](CCCCN)C(=O)N[C@@H](CO)C(=O)N[C@H](C(=O)N[C@@H](CCC(=O)O)C(=O)N[C@@H](CC(N)=O)C(=O)N[C@H](C(=O)N[C@@H](CO)C(=O)N[C@H](C(=O)N[C@@H](CC(C)C)C(=O)N[C@@H](Cc1c[nH]c2ccccc12)C(=O)N[C@@H](Cc1ccc(O)cc1)C(=O)N[C@@H](CCCCN)C(N)=O)C(C)C)C(C)C)C(C)C [NCR169C17–38C12,17/S] (H-KSKKPLFKIWKSVENVSVLWYK-NH2)	3.1 µM (≈ 8.39 µg/mL)	3.1 µM (≈ 8.39 µg/mL)	1.6 µM (≈ 4.33 µg/mL)	–	3.1 µM (≈ 8.39 µg/mL)	3.1 µM (≈ 8.39 µg/mL)	1.6 µM (≈ 4.33 µg/mL)	1.6 µM (≈ 4.33 µg/mL)	1.6 µM (≈ 4.33 µg/mL)	1.6 µM (≈ 4.33 µg/mL)	3.1 µM (≈ 8.39 µg/mL)	3.1 µM (≈ 8.39 µg/mL)	–	–	–
KSKKPLFKIWKSVENVSVLW^5-MeOYK [NCR169C17–38C12,17/S-20W^5-MeO, NCR169C17–38C12,17/S analog with 5-methoxy tryptophan at position 20, forms not separated]	–	–	–	–	–	–	–	–	–	–	–	–	3.1 µM	3.1 µM	MBC against most or all of the tested bacteria ([1]; summary over the tested bacterial species, 3 h in PPB pH 7.4): 3.1 µM; Minimal bactericidal concentration (MBC) K. p. ([2]; Klebsiella pneumoniae NCTC 13440, ~10^7 log phase bacteria, 3 h in PPB pH 7.4, peptide 25 to 0.125 μM 2-fold series, plated on LB agar, overnight 37 °C): 3.1 µM; Minimal bactericidal concentration (MBC) E. c. ([4]; Escherichia coli ATCC 8739, ~10^7 log phase bacteria, 3 h in PPB pH 7.4, peptide 25 to 0.125 μM 2-fold series, plated on LB agar, overnight 37 °C): 3.1 µM; Minimal bactericidal concentration (MBC) A. b. ([5]; Acinetobacter baumannii ATCC 17978, ~10^7 log phase bacteria, 3 h in PPB pH 7.4, peptide 25 to 0.125 μM 2-fold series, plated on LB agar, overnight 37 °C): 3.1 µM; Minimal bactericidal concentration (MBC) S. a. ([6]; Staphylococcus aureus HNCMO112011, ~10^7 log phase bacteria, 3 h in PPB pH 7.4, peptide 25 to 0.125 μM 2-fold series, plated on LB agar, overnight 37 °C): 3.1 µM; Minimal bactericidal concentration (MBC) S. e. ([7]; Salmonella enterica ATCC 13076, ~10^7 log phase bacteria, 3 h in PPB pH 7.4, peptide 25 to 0.125 μM 2-fold series, plated on LB agar, overnight 37 °C): 3.1 µM; Minimal bactericidal concentration (MBC) P. a. ([9]; Pseudomonas aeruginosa ATCC 27853, ~10^7 log phase bacteria, 3 h in PPB pH 7.4, peptide 25 to 0.125 μM 2-fold series, plated on LB agar, overnight 37 °C): 0.8 µM
